From patent US12077503B2, “Substituted cyclic amides and their use as herbicides” (FMC CORPORATION, priority 2015, dated 2024)

Tests used:
Type in all cases: in vivo
[1] = system: ryegrass, Italian (Italian ryegrass, Lolium multiflorum); assay: Test A preemergence; conditions: Preemergence; for Plant response rating, Ryegrass, Italian: 125 g ai/ha, visual injury after approximately 10 d, 0 to 100 scale where 0 is no effect and 100 is complete control; for Ryegrass, Italian plant response rating (0 to 100 scale, 0 is no effect, 100 is complete control): 500 g ai/ha, visual injury approx. 10 d
Excerpt: (§1) Seeds of plant species selected from barnyardgrass (Echinochloa crus-galli), Kochia (Kochia scoparia), ragweed (common ragweed, Ambrosia elatior), ryegrass, Italian (Italian ryegrass, Lolium multiflorum), crabgrass, large (Digitaria sanguinalis), giant foxtail (Setaria faberii), green foxtail (Setaria viridis), morningglory (Ipomoea spp.), pigweed (Amaranthus retroflexus), velvetleaf (Abutilon theophrasti), wheat (Triticum aestivum), and corn (Zea mays) were planted into a blend of loam soil and sand and treated preemergence with a directed soil spray using test chemicals formulated in anon-phytotoxic solvent mixture which included a surfactant.
(§2) At the same time, plants selected from these crop and weed species and also blackgrass (Alopecurus myosuroides), and Galium (catchweed bedstraw, Galium aparine) were planted in pots containing the same blend of loam soil and sand and treated with postemergence applications of test chemicals formulated in the same manner. Plants ranged in height from 2 to 10 cm and were in the one- to two-leaf stage for the postemergence treatment. Treated plants and untreated controls were maintained in a greenhouse for approximately 10 d, after which time all treated plants were compared to untreated controls and visually evaluated for injury. Plant response ratings, summarized in Table A, are based on a 0 to 100 scale where 0 is no effect and 100 is complete control. A dash (-) response means no test result.

[2] = system: ragweed (common ragweed, Ambrosia elatior); assay: Test A preemergence; conditions: Preemergence; for Plant response rating, Ragweed: 125 g ai/ha, visual injury after approximately 10 d, 0 to 100 scale where 0 is no effect and 100 is complete control; for Ragweed plant response rating (0 to 100 scale, 0 is no effect, 100 is complete control): 500 g ai/ha, visual injury approx. 10 d
Excerpt: as §1, §2

[3] = system: barnyardgrass (Echinochloa crus-galli); assay: Test A preemergence; conditions: Preemergence; for Plant response rating, Barnyardgrass: 125 g ai/ha, visual injury after approximately 10 d, 0 to 100 scale where 0 is no effect and 100 is complete control; for Barnyardgrass plant response rating (0 to 100 scale, 0 is no effect, 100 is complete control): 500 g ai/ha, visual injury approx. 10 d
Excerpt: as §1, §2

[4] = system: giant foxtail (Setaria faberii); assay: Test A preemergence; conditions: Preemergence; for Plant response rating, Foxtail, Giant: 125 g ai/ha, visual injury after approximately 10 d, 0 to 100 scale where 0 is no effect and 100 is complete control; for Foxtail, Giant plant response rating (0 to 100 scale, 0 is no effect, 100 is complete control): 500 g ai/ha, visual injury approx. 10 d
Excerpt: as §1, §2

[5] = system: Kochia (Kochia scoparia); assay: Test A preemergence; conditions: Preemergence; for Plant response rating, Kochia: 125 g ai/ha, visual injury after approximately 10 d, 0 to 100 scale where 0 is no effect and 100 is complete control; for Kochia plant response rating (0 to 100 scale, 0 is no effect, 100 is complete control): 500 g ai/ha, visual injury approx. 10 d
Excerpt: as §1, §2

[6] = system: pigweed (Amaranthus retroflexus); assay: Test A preemergence; conditions: Preemergence; for Plant response rating, Pigweed: 125 g ai/ha, visual injury after approximately 10 d, 0 to 100 scale where 0 is no effect and 100 is complete control; for Pigweed plant response rating (0 to 100 scale, 0 is no effect, 100 is complete control): 500 g ai/ha, visual injury approx. 10 d
Excerpt: as §1, §2

[7] = system: ryegrass, Italian (Italian ryegrass, Lolium multiflorum); assay: Test A postemergence
Excerpt: as §1, §2

[8] = system: ragweed (common ragweed, Ambrosia elatior); assay: Test A postemergence
Excerpt: as §1, §2

[9] = system: barnyardgrass (Echinochloa crus-galli); assay: Test A postemergence
Excerpt: as §1, §2

[10] = system: corn (Zea mays); assay: Test A postemergence
Excerpt: as §1, §2

[11] = system: Galium (catchweed bedstraw, Galium aparine); assay: Test A postemergence
Excerpt: as §1, §2

[12] = system: giant foxtail (Setaria faberii); assay: Test A postemergence
Excerpt: as §1, §2

[13] = system: Kochia (Kochia scoparia); assay: Test A postemergence
Excerpt: as §1, §2

[14] = system: blackgrass (Alopecurus myosuroides); assay: Test A postemergence
Excerpt: as §1, §2

[15] = system: pigweed (Amaranthus retroflexus); assay: Test A postemergence
Excerpt: as §1, §2

[16] = system: wheat (Triticum aestivum); assay: Test A postemergence
Excerpt: as §1, §2

[17] = 125 g ai/ha, postemergence, visual rating after approx. 10 d, 0 to 100 scale (0 no effect, 100 complete control)
[18] = Postemergence, 500 g ai/ha, 0 to 100 scale where 0 is no effect and 100 is complete control

Row | SMILES | Plant response rating, Ryegrass, Italian [1] | Ryegrass, Italian plant response rating (0 to 100 scale, 0 is no effect, 100 is complete control) [1] | Plant response rating, Ragweed [2] | Ragweed plant response rating (0 to 100 scale, 0 is no effect, 100 is complete control) [2] | Plant response rating, Barnyardgrass [3] | Barnyardgrass plant response rating (0 to 100 scale, 0 is no effect, 100 is complete control) [3] | Plant response rating, Foxtail, Giant [4] | Foxtail, Giant plant response rating (0 to 100 scale, 0 is no effect, 100 is complete control) [4] | Plant response rating, Kochia [5] | Kochia plant response rating (0 to 100 scale, 0 is no effect, 100 is complete control) [5] | Plant response rating, Pigweed [6] | Pigweed plant response rating (0 to 100 scale, 0 is no effect, 100 is complete control) [6] | Plant response rating, Ryegrass, Italian [7, 17] | Plant response rating, Ryegrass, Italian [7, 18] | Plant response rating, Ragweed [8, 17] | Plant response rating, Ragweed [8, 18] | Plant response rating, Barnyardgrass [9, 17] | Plant response rating, Barnyardgrass [9, 18] | Plant response rating, Corn [10, 17] | Plant response rating, Corn [10, 18] | also measured
1 | Cc1ccc(C2CN(C)C(=O)C2C(=O)Nc2ccccc2F)c(F)c1 (stereo not shown) [Compound 560] | 0 | 70 | 0 | 0 | 90 | 100 | 100 | 100 | 60 | 80 | 0 | 40 | 0 | 60 | 0 | 20 | 90 | 100 | 0 | 30 | Plant response rating, Galium [11, 17]: 40; Plant response rating, Galium [11, 18]: 60; Plant response rating, Foxtail, Giant [12, 17]: 90; Plant response rating, Foxtail, Giant [12, 18]: 90; Plant response rating, Kochia [13, 17]: 40; Plant response rating, Kochia [13, 18]: 80; Plant response rating, Blackgrass [14, 17]: 30; Plant response rating, Blackgrass [14, 18]: 50; Plant response rating, Pigweed [15, 17]: 0; Plant response rating, Pigweed [15, 18]: 20; Plant response rating, Wheat [16, 17]: 0; Plant response rating, Wheat [16, 18]: 50
2 | CN1CC(c2cccc(C(F)(F)F)c2)C(C(=O)Nc2cccc(C#N)c2F)C1=O (stereo not shown) [Compound 576] | 20 | 30 | 20 | 60 | 90 | 90 | 90 | 90 | 20 | 90 | 20 | 80 | 30 | 60 | 30 | 50 | 90 | 90 | 80 | 80 | Plant response rating, Galium [11, 17]: 50; Plant response rating, Galium [11, 18]: 60; Plant response rating, Foxtail, Giant [12, 17]: 90; Plant response rating, Foxtail, Giant [12, 18]: 90; Plant response rating, Kochia [13, 17]: 30; Plant response rating, Kochia [13, 18]: 60; Plant response rating, Blackgrass [14, 17]: 50; Plant response rating, Blackgrass [14, 18]: 50; Plant response rating, Pigweed [15, 17]: 0; Plant response rating, Pigweed [15, 18]: 50; Plant response rating, Wheat [16, 17]: 60; Plant response rating, Wheat [16, 18]: 70
